From US10815275B2, “Antimicrobial peptoids with improved selectivity and use thereof” (priority 2018, dated 2020)
≈ marks a conversion by molar mass, not a printed value. Non-standard residues stand in square brackets, D forms with d. Residues, ends and D or L forms follow the SMILES beside them. Nspe = C[C@H](NCC(=O)O)c1ccccc1; Nphe = O=C(O)CNCc1ccccc1; Nlys = NCCCCNCC(=O)O

What was measured:
E. coli strain ATCC25922 = assay type: cell-based; settings: for MBC E. coli: ATCC25922; for MIC E. coli: ATCC25922, 18 h
Procedure: (§1) In order to measure antimicrobial activity of the peptoids, Gram-positive S. aureus strain KCTC1621, or Gram-negative E. coli strain ATCC25922 was treated with the peptoids prepared in Preparation Example 1, and minimum inhibitory concentrations were measured. Peptoid NOS. 1 and 2 are already known peptoids and were used for the purpose of making a comparison with novel peptoids in terms of antimicrobial activity.
(§2) Specifically, S. aureus strain KCTC1621 or E. coli strain ATCC25922 was inoculated into Mueller Hinton Broth (MHB2) liquid medium on which cations were adjusted, cultured at a temperature of 37° C. for 18 hours, and then subcultured for 4 hours. Thereafter, the strains were diluted with MHB2 liquid medium containing 0.2% bovine serum albumin and 0.01% acetic acid so that each bacterial number was 2×10^5 colony-forming units (CFU) per 1 mL, and dispensed into 96-well microtiter plates at 100 μL each. A peptoid stock which is 40-fold more concentrated than a concentration to be tested was added to each well at 2.5 μL or lower so that the peptoid stock was 2-fold serially diluted using sterile water. Thereafter, the plates were incubated at a temperature of 37° C. for 18 hours.
(§3) Thereafter, absorbance was measured at a wavelength of 600 nm using a microplate reader (Bio-Rad). The lowest peptoid concentration that completely suppresses growth of microorganisms was measured by a minimum inhibitory concentration (MIC) and a minimum bactericidal concentration (MBC), and the measurement results are shown in Table 5 below. Each of the MIC values was calculated as an average value of numerical values obtained through three independent experiments.

[1] = tested on: S. aureus strain KCTC1621; assay type: cell-based; settings: for MBC S. aureus: KCTC1621; for MIC S. aureus: KCTC1621, 18 h
Procedure: as §1, §2, §3

red blood cells = assay: Hemolytic activity on red blood cells; assay type: cell-based, mouse
Procedure: In order to identify, through red blood cell hemolytic activity in mice, whether the peptoids synthesized in Preparation Example 1 are cytotoxic, red blood cells isolated from 10 mL of mouse blood were washed three times with phosphate-buffered saline (PBS, mixed solution of 35 mM phosphate buffer/150 mM NaCl, pH 7.4), and then centrifuged at a centrifugal force of 1,000 ×g for 10 minutes. A 10% (v/v) red blood cell solution diluted with PBS was dispensed into a 96-well microtiter plate at 150 μL each, and then a peptide solution was added at 50 μL each. Thereafter, the 96-well microtiter plate was incubated at a temperature of 37° C. for 1 hour.
The incubated 96-well microtiter plate was centrifuged at a centrifugal force of 1,000×g for 5 minutes. Thereafter, supernatant was taken at 100 μL each and transferred to a new 96-well microtiter plate. Then, absorbance at a wavelength of 540 nm was measured (Table 6).
In this case, a value obtained in a case of being treated with 0.1% (v/v) Triton X-100 was set as 100% hemolysis, and hemolytic activity (degree of cell destruction) of the peptoids was calculated using the following Equation 1. In the Equation 1, A is absorbance of the peptoid solution at a wavelength of 540 nm, B is absorbance of 0.1% Triton X-100 at a wavelength of 540 nm, and C is absorbance of the PBS solution at a wavelength of 540 nm. In this case, Peptoid NO. […] Degree of cell destruction (% hemolysis)=(A−C)/(B−C)[…] [Equation 1]
In Table 6, HD10 means a peptoid concentration which causes 10% hemolysis of red blood cells, and HD50 means a peptoid concentration which causes 50% hemolysis of red blood cells. In addition, Hmax is a hemolysis rate (%) at 200 μM which is the highest peptoid concentration used in the experiment.
Hemolytic activity of Peptoid NOS. 1, 18 to 23, and the peptide Pexiganan was measured in the same manner as in Experimental Example 2.

P. aeruginosa (198B MDR) = assay: MIC in multidrug-resistant bacteria panel, modified microdilution; assay type: cell-based; settings: overnight, 37° C.
Procedure: (§4) Minimum inhibitory concentrations of the prepared peptoids for multidrug-resistant bacteria were measured using a modified microdilution method in Difco Mueller Hinton medium, and tests were done on a panel of bacterial pathogens which have resistance and tolerance against common antibiotics.
(§5) Briefly, a peptoid concentrate, which is 10-fold more concentrated than a final concentration, was serially diluted with a medium containing 0.2% bovine serum albumin and 0.01% acetic acid. 10 μL of the 10-fold concentrated peptoid concentrate and 90 μL of Muller Hinton medium were added to each well of a 96-well polypropylene microtitre plate. Bacteria were added to the plate so that a final concentration thereof was 2×10^5 CFU/mL, and then incubated overnight at a temperature of 37° C. The minimum inhibitory concentration was defined as a concentration at which no bacterial growth is observed.

P. aeruginosa (PA01) = assay: as above; assay type: cell-based; settings: overnight, 37° C.
Procedure: as §4, §5

[2] = tested on: S. epidermidis (ET-024 MRSA); assay: as above; assay type: cell-based; settings: overnight, 37° C.
Procedure: as §4, §5

[3] = Metabolic stability in human liver S9 fraction, HPLC; assay type: in vitro ADME; settings: human
Procedure: In order to identify metabolic stability of the peptoids synthesized in Preparation Example 1, such peptoids were subjected to enzymatic reaction using S9 fraction which is a mixture of human liver tissue-extracted metabolic enzymes. Thereafter, for the reaction products, metabolites were quantitated using HPLC.
Specifically, Peptoid NOS. 1 and 4, and Pexiganan as a peptide control (40 μL each, 100 μM) were treated with […], 3.3 mM MgCl2, and 1.3 mM NADPH buffer (306 μL, pH=7.4), to prepare respective samples. The respective samples were treated with S9 fraction (2 μL, 0.1 mg/mL) and then incubated at a temperature of 37° C. When 0, 1, 4, and 24 hours had elapsed after treatment with the S9 fraction, 40 μL of each sample was taken out, and acetonitrile containing the same amount of 0.1% trifluoroacetic acid was used to stop activity of enzymes contained in the S9 fraction. Thereafter, proteins precipitated with acetonitrile were centrifuged at a condition of 1,000×g for 10 minutes at a temperature of 4° C. Then, supernatant was analyzed by HPLC to identify an amount of the remaining peptoid which had not been degraded by the enzymes in the S9 fraction.

E. coli = assay: Selectivity analysis, HD10 divided by MIC for E. coli; settings: HD10 of Table 6 divided by MIC for E. coli ATCC25922
Procedure: In order to identify changes in selectivity depending on alteration of degree of folding in helical structure of peptoids, selectivity of each peptoid was calculated using the resultant values measured in the Experimental Examples 1 and 2. The selectivity was obtained by dividing the HD10 value by the minimum inhibitory concentration for E. coli (Table 8).

E. coli (63103 ESBL) = assay: MIC in multidrug-resistant bacteria panel, modified microdilution; assay type: cell-based; settings: overnight, 37° C.
Procedure: as §4, §5

S. aureus (ATCC25923) = assay: as above; assay type: cell-based; settings: overnight, 37° C.
Procedure: as §4, §5

B. subtilis = assay type: cell-based; settings: 18 h
Procedure: (§6) In order to measure antimicrobial activity of the peptoids, Gram-positive B. subtilis or Gram-negative E. coli strain DH5α was treated with Peptoid NOS. 1, 18 to 23, and the peptide Pexiganan, and minimum inhibitory concentrations were measured. Peptoid NOS. 1 and 2, and the peptide Pexiganan are already known antimicrobial peptoids and peptides, and were used for the purpose of making a comparison with novel peptoids in terms of antimicrobial activity.
(§7) Specifically, B. subtilis or E. coli DHS a was inoculated into LB liquid medium, and cultured at a temperature of 37° C. for 18 hours. Thereafter, the bacteria were diluted with LB medium so that each bacterial number was 2×10^5 colony-forming units (CFU) per 1 mL, and dispensed into 96-well microtiter plates at 100 μL each. The peptoid, which is 2-fold serially diluted using sterile water, was added to each well at 100 μL each. The plates were incubated at a temperature of 37° C. for 18 hours.
as §3, with “(MIC),” for “(MIC) and a minimum bactericidal concentration (MBC),”, “12” for “5”, “minimum inhibitory concentration” for “MIC”

E. coli strain DH5α = assay: Antimicrobial activity of peptoids with altered cationic residues, MIC; assay type: cell-based; settings: LB medium, 18 h
Procedure: as §6, §7
as §3, with “(MIC),” for “(MIC) and a minimum bactericidal concentration (MBC),”, “12” for “5”, “minimum inhibitory concentration” for “MIC”

in vitro = assay type: cell-based; settings: human
Procedure: In order to determine whether the peptoids were cytotoxic against human cell lines, […] cell line (Korean Cell Line Bank) which is a human lung cell line was cultured in a DMEM (Dulbecco's modified Eagle's medium) culture solution containing 10% (v/v) fetal bovine serum (FBS) at 5% CO2 and a temperature of 37° C. 100 μL of DMEM medium was dispensed into each well of a 96-well microtiter plate so that the number of cells was 1.3×10^4, and then incubated overnight at a temperature of 37° C. in a 5% CO2 incubator. In this case, a DMEM medium was used as a negative control. Thereafter, the peptoid which is 2-fold serially diluted using sterile water was added to each well, and then incubated for 24 hours.
After incubation, 20 μL of an MTS solution [3-(4,5-dimethylthiazol-2-yl)-5-(3-carboxymethoxyphenyl)-2-(4-sulfophenyl)-2H-tetrazolium, inner salt; MTS] was added thereto and incubated at a temperature of 37° C. for 4 hours. Thereafter, % survival was calculated by measuring absorbance at a wavelength of 490 nm using an ELISA reader. The % survival was calculated as a percentage obtained by dividing the absorbance value for a well-treated with the peptoid by the absorbance value for a well containing control cells which had not been treated with the peptoid.

Compound	MBC E. coli (E. coli strain ATCC25922)	MIC E. coli (E. coli strain ATCC25922)	MBC S. aureus [1]	MIC S. aureus [1]	HD10 (red blood cells)	HD50 (red blood cells)	minimum inhibitory concentration P. aeruginosa (198B MDR) (P. aeruginosa (198B MDR))	minimum inhibitory concentration P. aeruginosa (PA01) (P. aeruginosa (PA01))	minimum inhibitory concentration S. epidermidis (ET-024 MRSA) [2]	remaining amount after S9 fraction treatment ([3]; s9, 24 h)	remaining at 24 h, 11.5 μM ([3]; s9, pH 7.4)	Selectivity [HD10/MIC (E. coli)] (E. coli)	minimum inhibitory concentration E. coli (63103 ESBL) (E. coli (63103 ESBL))	minimum inhibitory concentration S. aureus (ATCC25923) (S. aureus (ATCC25923))	MIC B. subtilis (B. subtilis)	MIC E. coli (E. coli strain DH5α)	CC50 at 24 h (in vitro)
C[C@@H](c1ccccc1)N(CC(=O)N(CCCCN)CC(=O)N(CC(=O)N(CC(=O)N(CCCCN)CC(=O)N(CC(=O)N(CC(=O)N(CCCCN)CC(=O)N(CC(=O)N(CC(N)=O)Cc1ccccc1)Cc1ccccc1)Cc1ccccc1)Cc1ccccc1)Cc1ccccc1)Cc1ccccc1)C(=O)CN(Cc1ccccc1)C(=O)CNCCCCN [compound 4] (H-[Nlys][Nphe][Nspe][Nlys][Nphe][Nphe][Nlys][Nphe][Nphe][Nlys][Nphe][Nphe]-NH2)	25 µM (≈ 43 µg/mL)	12.5 µM (≈ 21.5 µg/mL)	3.1 µM (≈ 5.34 µg/mL)	3.1 µM (≈ 5.34 µg/mL)	89.6	> 200	6.3	6.3	<0.8 to 0.8	≥ 60%	74%	7.1					
C[C@@H](c1ccccc1)N(CC(N)=O)C(=O)CN(Cc1ccccc1)C(=O)CN(CCCCN)C(=O)CN(Cc1ccccc1)C(=O)CN(Cc1ccccc1)C(=O)CN(CCCCN)C(=O)CN(Cc1ccccc1)C(=O)CN(Cc1ccccc1)C(=O)CN(CCCCN)C(=O)CN(C(=O)CN(C(=O)CNCCCCN)[C@@H](C)c1ccccc1)[C@@H](C)c1ccccc1 [compound 13]	25 µM (≈ 43.7 µg/mL)	25 µM (≈ 43.7 µg/mL)	6.3 µM (≈ 11 µg/mL)	3.1 µM (≈ 5.42 µg/mL)	81.7	> 200	6.3	6.3	<0.8 to 0.8			3.3	6.3	3.1			
C[C@@H](c1ccccc1)N(CC(=O)N(CCCCN)CC(=O)N(CC(=O)N(CC(=O)N(CCCCN)CC(=O)N(CC(=O)N(CC(N)=O)Cc1ccccc1)Cc1ccccc1)[C@@H](C)c1ccccc1)[C@@H](C)c1ccccc1)C(=O)CN(Cc1ccccc1)C(=O)CN(CCCCN)C(=O)CN(Cc1ccccc1)C(=O)CN(Cc1ccccc1)C(=O)CNCCCCN [compound 15] (H-[Nlys][Nphe][Nphe][Nlys][Nphe][Nspe][Nlys][Nspe][Nspe][Nlys][Nphe][Nphe]-NH2)	25 µM (≈ 43.7 µg/mL)	12.5 µM (≈ 21.9 µg/mL)	3.1 µM (≈ 5.42 µg/mL)	3.1 µM (≈ 5.42 µg/mL)	26.8	155.8	6.3		<0.8 to 0.8			2.1	6.3	3.1			
C[C@@H](c1ccc(Cl)cc1)N(CC(N)=O)C(=O)CN(C(=O)CN(CCCCN)C(=O)CN(C(=O)CN(C(=O)CN(CCCCN)C(=O)CN(C(=O)CN(C(=O)CN(CCCCN)C(=O)CN(C(=O)CN(C(=O)CNCCCCN)[C@@H](C)c1ccc(Cl)cc1)[C@@H](C)c1ccc(Cl)cc1)[C@@H](C)c1ccc(Cl)cc1)[C@@H](C)c1ccc(Cl)cc1)[C@@H](C)c1ccc(Cl)cc1)[C@@H](C)c1ccc(Cl)cc1)[C@@H](C)c1ccc(Cl)cc1 [compound 19]					< 6.25	10.4									6.1 µM (≈ 12.8 µg/mL)	>6.1 µM	3 µM
Cc1ccc([C@H](C)N(CC(N)=O)C(=O)CN(C(=O)CN(CCCCN)C(=O)CN(C(=O)CN(C(=O)CN(CCCCN)C(=O)CN(C(=O)CN(C(=O)CN(CCCCN)C(=O)CN(C(=O)CN(C(=O)CNCCCCN)[C@@H](C)c2ccc(C)cc2)[C@@H](C)c2ccc(C)cc2)[C@@H](C)c2ccc(C)cc2)[C@@H](C)c2ccc(C)cc2)[C@@H](C)c2ccc(C)cc2)[C@@H](C)c2ccc(C)cc2)[C@@H](C)c2ccc(C)cc2)cc1 [compound 20]					< 6.25	8.3									0.8 µM (≈ 1.55 µg/mL)	>6.1 µM	8 µM
